Assay [1] has as its system Saccharomyces cerevisiae BY4741/YEplac195-PDR5. Briefly: microbe, parasite or virus in culture. Format: cell-based. The conditions noted are these: Saccharomyces cerevisiae, 24 h, read-out: MIC, Yeast, BY4741/ PDR5. From the text: (§1) The microorganisms used for the susceptibility tests were the bacteria Escherichia coli JM101 and Staphylococcus aureus BHI, and the yeast Saccharomyces cerevisiae strains BY4741 (MAT a his3Δ1 leu2Δ0 met15Δ0 ura3Δ0 (EUROSCARF)) carrying YEplac195 (from EUROSCARF) or YEPlac195-PDR5 (provided by Ayse Banu Demir, Izmir University of Economics, Turkey) plasmids.
(§2) Bacterial strains were usually maintained and grown in an LB medium (0.5% (w/v) yeast extract, 1% (w/v) bactotryptone, and 1% (w/v) NaCl) at 37 °C. For MIC (minimal inhibitory concentration) and MMC (minimal microbicidal concentration) assays, and for the determination of synergies, overnight growth was carried out in 2% (w/v) bactopeptone (BP), and then the cultures were diluted and incubated for several hours in 2% (w/v) BP for ensuring logarithmic growth. Yeast strains were grown in an SC-ura medium (0.17% (w/v) yeast nitrogen base without amino acids and ammonium sulphate, 0.2% (w/v) drop-out without uracil, 0.5% (w/v) (NH4)2SO4, and 2% (w/v) glucose) at 30 °C. Liquid cultures were incubated with shaking (200 rpm). Solid media also contained 2% (w/v) agar.
(§3) The determination of the MIC for yeast strains was carried out following a similar procedure to that of the polyamines and antifungal reference agents: Serial dilutions of each one in phosphate buffer (20 mM, pH 7.4, 0.5 mL) were prepared and mixed with a suspension of yeast cells (OD600 0.04 in SC-ura 2X (VWR, Atlanta, GA, USA), 0.5 mL). […] Experiments were carried out at least three times in all cases.

For assay [2], the system named is Saccharomyces cerevisiae BY4741/YEplac195. Briefly: microbe, parasite or virus in culture. Format: cell-based. The note with it: Saccharomyces cerevisiae; 24 h, 30 °C; average of at least three experiments; read-out: MIC, Yeast, BY4741/ YEplac195.
Source text: as §1, §2, §3

For another assay, the system named is yeast cells. Briefly: Intracellular ATP by luciferase bioluminescence, yeast. The format is cell-based, Saccharomyces cerevisiae. The conditions noted are these: overnight treatment. As to the method:
The procedure described by Lehtinen et al. was followed, with the modifications indicated herein. In the case of bacteria, 1.5 OD600 units were incubated overnight in 1 mL of final volume with 5-fold MIC concentrations. Then, the cells were collected, washed 3 times in 20 mM phosphate buffer pH 7.4, and lysed in 200 μL of LS1 (50 mM of glucose, 25 mM of Tris-HCl pH 8.0, and 10 mM of EDTA pH 8.0) containing 5 mg/mL of lysozyme and the same volume of glass beads (425–600 μm), by stirring 10 times for 15 s each. Then, the solution was centrifuged at 14,800× g for 15 min, and the supernatant was used for a luciferase assay. For this purpose, in each well of a microtiter plate, 100 μL of luciferase assay buffer (0.015 M of MgSO4, 0.015 M of KH2PO4 pH 8, 0.004 M of EGTA pH 8, and 2 mM of DTT) was added together to a 50 μL of 0.3 mg/mL luciferin solution in 0.01% (w/v) Triton X-100 and 50 μL of the cell extract. Finally, 15 μL of a 67 μg/mL aqueous solution of luciferase was added. Light emission was immediately detected using a Luminoskan Ascent instrument (Thermo Scientific, Waltham, MA, USA) for 1 s per well. Glass beads, lysozyme, luciferin, and luciferase were purchased from Sigma-Aldrich.
[…] Then, cells were collected and washed as above and resuspended in 500 μL of LS2 (140 mM of NaCl, 1.5 mM of MgCl2, 10 mM of Tris-HCl pH 8.0, and 0.5% (v/v) NP40). Cells were lysed in the presence of 1 volume of glass beads as described above. The next steps were carried out as in the case of bacterial samples.
Experiments were carried out at least in triplicate in all cases, and control drugs and SDS (0.1% (w/v) of the final concentration) were also included.

As to `C[C@@H]1[C@H](O)[C@@H](C)/C=C/C=C/C=C/C=C/C=C/C=C/C=C/[C@H](O[C@@H]2O[C@H](C)[C@@H](O)[C@H](N)[C@@H]2O)C[C@@H]2O[C@](O)(C[C@@H](O)C[C@@H](O)[C@H](O)CC[C@@H](O)C[C@@H](O)CC(=O)O[C@H]1C)C[C@H](O)[C@H]2C(=O)O` [Amphotericin B, reference compound], the MIC in assay [1] and in assay [2] was 1 mg/L each time. In the assay on yeast cells (50-fold the MIC), the “Intracellular ATP level relative to untreated cells” value is on record as “dramatic decrease”.

For `OC(Cn1cncn1)(Cn1cncn1)c1ccc(F)cc1F` [Fluconazole, reference compound], the MIC in assay [1] turned out to be 60 mg/L; in assay [2] it was 10 mg/L. In the assay on yeast cells (30-fold the MIC), the “Intracellular ATP level relative to untreated cells” value was “very reduced”.

`CCCCCCCCCCCCOS(=O)(=O)[O-].[Na+]` [SDS]: the “Intracellular ATP level relative to untreated cells” value in the assay on yeast cells (0.1% (w/v)) is listed as 50–70%.

These data come from article PMC10675077, “Antimicrobial Properties of New Polyamines Conjugated with Oxygen-Containing Aromatic Functional Groups” (Molecules, 2023).
